Laboratory results published in patent publication US20080027044A1, “Prodrug antibiotic screens” (priority 2006, published 2008).
≈ marks a conversion by molar mass, not a printed value.

Columns and labels:
[1] = tested on: E. coli K12 Δactivating enzyme; assay: MIC, broth microdilution, strains deleted in activating enzyme; assay type: cell-based; conditions: anaerobic conditions
Procedure: (§1) Cells were tested in a standard broth microdilution assay, inoculating 10^5 cells per well of a microtiter plate in LB broth. Overexpression and deletion strains were compared to the appropriate isogenic wild type. IPTG was added at 1 mM to growth medium. Experiments involving nfnB and nfsA strains were performed under anaerobic conditions.

[2] = tested on: E. coli K12 ΔtolC overexpressing activating enzyme; assay: MIC, broth microdilution, tolC deletion strains (MDR efflux test); assay type: cell-based
From the text: Prodrugs are activated by activating enzymes into reactive molecules that bind to their targets, creating an irreversible sink. This may lead to insensitivity of the overall process to MDR efflux. In order to test this possibility, an E. coli K12 with a deletion in tolC coding for the outer membrane porin that is a component of the transenvelope MDRs was utilized (Li, X. Z et al. (2004) Drugs 64:159-204). This strain is highly sensitive to antibiotics (Tegos et al. (2002) Antimicrob. Agents Chemother. 46:3133-3141). […] The substrate specificity of AcrAB is remarkably broad, and includes essentially all small molecular weight amphipathic compounds. The AcrAB substrates include anions (SDS, fatty acids, bile acids), neutral compounds (macrolides, chloramphenicol, tetracyclines) and cations or compounds that can form cations (acridine, quaternary compound antiseptics, fluoroquinolones). AcrAB can extrude the best natural broad spectrum antibiotics that evolved for good penetration —chloramphenicol and tetracycline; and extrude the best synthetic broad-spectrums, the fluoroquinolones. Indeed, amphipathic antimicrobials that are not an AcrAB substrate are not known.
as §1

[3] = tested on: E. coli K12 overexpressing activating enzyme; assay: MIC, broth microdilution, strains overexpressing activating enzyme; assay type: cell-based; conditions: for MIC: 1 mM IPTG; for susceptibility of strains overexpressing the corresponding activating enzymes: in words
From the text: Next, the hits that verify and have reduced activity compared to wild type or no activity against strains deleted in a known or putative enzyme are validated. The rationale is to test the hit against a strain overexpressing the putative activating enzyme. Strains overexpressing activating enzymes have considerably higher susceptibility to prodrugs. It is important to note that conventional antibiotics that inhibit specific targets have increased activity against strains with diminished expression of the target, and decreased activity if the target is overproduced (Schmid, M. B. (2001) New targets and strategies for identification of novel classes of antibiotics. In Antibiotic Development and Resistance. Hughes, D. and Andersson, D. I. (eds). New York: Taylor and Francis, pp. 197-208; Sun, D.e.a. (2001) In 41st Interscience Conference on Antimicrobial Agents and Chemotherapy Chicago: ASM, pp. 77). A prodrug hit has higher activity against a strain overexpressing an activating enzyme, and lower activity against a strain lacking/diminished in an activating enzyme. This behavior of a prodrug hit is the exact opposite from what one expects from a specific antibiotic, and will provide for an excellent preliminary validation of prodrugs. This validation is facilitated by the availability of the ASKA library of E. coli strains overexpressing all known ORFs. The University of Nagoya freely distributes this resource (Saka et al. (2005) DNA Res. 12:63-68). The library contains 4,382 individual E. coli K12 W3110 clones, each carrying a single ORF cloned in an expression vector pCA24N under a pT5/lac promoter. The N-termini carry a his-tag linked to the ORF by a 7 amino acid spacer. The vector carries a CAM resistance marker and a lacl^q gene for a tight control of IPTG-inducible expression.
(§2) The ASKA strains of interest are validated for functional expression of the enzyme. If the protein is not expressed from a given expression vector the ORF will be recloned. A strain overexpressing the activating enzyme from the ASKA library is then tested with the hit compound. If the hit has greater activity against this overexpressing strain as compared to the wild type, this indicates a prodrug. The test is performed in a standard broth microdilution assay for MIC determination. Hits with the lowest wild type MIC are then focused on.
as §1

E. coli K12 wt = assay: MIC, standard broth microdilution assay, wild type; assay type: cell-based; conditions: in words; all strains tested
Procedure: as §2, §1

P. aeruginosa = assay: Killing of logarithmic, stationary and biofilm cultures by bactericidal antimicrobials (colony count); assay type: cell-based; conditions: in words
Procedure: Persister cells in planktonic and biofilm populations are characterized for their antibiotic sensitivity in this example. Several bactericidal antimicrobials were chosen to test the resistance of P. aeruginosa to killing—ofloxacin, a fluoroquinolone; tobramycin, an aminoglycoside; carbenicillin, a β-lactam; and peracetic acid, a disinfectant oxidant (Spoering et al. (2001) J. Bacteriol. 183:6746-6751). Biofilms were grown essentially by the method of Ceri (Ceri et al. (1999) J. Clin. Microbiol. 37:1771-1776) and as described in Brooun et al. (2000) Antimicrob. Agents Chemother. 44:640-646. The device used for biofilm formation is a platform carrying 96 polystyrene pegs that fit in a microtiter plate. Preformed biofilms were incubated in the presence of an antimicrobial agent, and survival was measured after disrupting the biofilms by colony count.
Carbenicillin is a bactericidal antibiotic that, similarly to most β-lactams, only kills rapidly growing cells (Tuomanen et al. (1986) Scand. J. Gastroenterol. Suppl:10-14). Logarithmic state, stationary and biofilm cultures were challenged with carbenicillin.
Unlike carbenicillin, ofloxacin can kill non-growing cells (Brooun et al. (2000) Antimicrob. Agents Chemother. 44:640-646). […] After a 6 hours incubation time with the antibiotic, viability was determined by colony count. […]

[4] = Schulz et al. (1997); cited from earlier work
[5] = E. coli K12 ΔtolC nfnB+ (overexpressing), anaerobic conditions
[6] = E. coli K12 ΔtolC nfsA+ (overexpressing), anaerobic conditions
[7] = E. coli K12 nfnB+ (overexpressing), anaerobic conditions
[8] = E. coli K12 nfsA+ (overexpressing), anaerobic conditions

## NC(=O)c1cc([N+](=O)[O-])cc([N+](=O)[O-])c1 [3,5-Dinitrobenzamide]
[1]; E. coli K12 nfnB− (deleted)
  MIC: >500 µg/mL
[1]; E. coli K12 nfsA− (deleted)
  MIC: >500 µg/mL
[2]; [5]
  MIC: 15.6 µg/mL (≈ 73.9 µM)
[2]; [6]
  MIC: 7.8 µg/mL (≈ 36.9 µM)
[3]; [7]
  MIC: 15.6 µg/mL (≈ 73.9 µM)
[3]; [8]
  MIC: 7.8 µg/mL (≈ 36.9 µM)
[3]
  susceptibility of strains overexpressing the corresponding activating enzymes: significantly increased susceptibilities

## Nc1nc(O)ncc1F [5-fluorocytosine, 5-Fluorocytosine]
E. coli K12 wt
  activity against any strains tested: little activity

## NC(=O)c1cc(N2CC2)c([N+](=O)[O-])cc1[N+](=O)[O-] [Dinitroaziridinylbenzamide (CB1954), Dinitroaziridinylbenzamide]
[2]; [5]
  MIC: 3.3 µg/mL (≈ 13.1 µM)
[2]; [6]
  MIC: 6.3 µg/mL (≈ 25 µM)
[3]; [7]
  MIC: 3.3 µg/mL (≈ 13.1 µM)
[3]; [8]
  MIC: 6.3 µg/mL (≈ 25 µM)
[3]
  susceptibility of strains overexpressing the corresponding activating enzymes: significantly increased susceptibilities

## CC[C@H]1OC(=O)[C@H](C)[C@@H](O[C@H]2C[C@@](C)(OC)[C@@H](O)[C@H](C)O2)[C@H](C)[C@@H](O[C@@H]2O[C@H](C)C[C@H](N(C)C)[C@H]2O)[C@](C)(O)C[C@@H](C)C(=O)[C@H](C)[C@@H](O)[C@]1(C)O [Erythromycin]
[2]; E. coli K12 ΔtolC codA+ (overexpressing)
  MIC: 1.56 µg/mL (≈ 2.13 µM)
[2]; E. coli K12 ΔtolC deoD+ (overexpressing)
  MIC: 1.56 µg/mL (≈ 2.13 µM)
[2]; [5]
  MIC: 1.56 µg/mL (≈ 2.13 µM)
[2]; [6]
  MIC: 1.56 µg/mL (≈ 2.13 µM)
[3]; E. coli K12 codA+ (overexpressing)
  MIC: 200 µg/mL (≈ 273 µM)
[3]; E. coli K12 deoD+ (overexpressing)
  MIC: 200 µg/mL (≈ 273 µM)
[3]; [8]
  MIC: 200 µg/mL (≈ 273 µM)

## CC(=O)OO [Peracetic acid, peracetic acid]
P. aeruginosa; all three cultures
  killing of logarithmic, stationary and biofilm cultures: all cultures were sterilized

## NC[C@H]1O[C@H](O[C@H]2[C@H](O)[C@@H](O[C@H]3O[C@H](CO)[C@@H](O)[C@H](N)[C@H]3O)[C@H](N)C[C@@H]2N)[C@H](N)C[C@@H]1O [Tobramycin, tobramycin]
[4]
  clinically achievable concentration: 10 µg/mL
P. aeruginosa; logarithmic cells
  killing of logarithmic cells: no logarithmic persisters were detected

## CC1COc2c(N3CCN(C)CC3)c(F)cc3c(=O)c(C(=O)O)cn1c23 (stereo not drawn) [ofloxacin]
[4]
  clinically achievable concentration: 5 µg/mL
